Data taken from ChEMBL document CHEMBL4507275, “Data for DCP probe BI-2545” (2021).

Assays:
[1] = tested on: Tyrosine-protein kinase ABL1 (Homo sapiens), P00519 [M351T]; conditions: Compound concentration 1000.0 nM
[2] = molecular target: ALK tyrosine kinase receptor (Homo sapiens) (UniProt Q9UM73); conditions: Compound concentration 1000.0 nM
[3] = molecular target: 5'-AMP-activated protein kinase catalytic subunit alpha-1 (Homo sapiens) (UniProt Q13131); conditions: Compound concentration 1000.0 nM
[4] = molecular target: Cyclin-dependent kinase 19 (Homo sapiens) (UniProt Q9BWU1); conditions: Compound concentration 1000.0 nM
[5] = molecular target: Cyclin-dependent kinase 5 (Homo sapiens) (UniProt Q00535); conditions: Compound concentration 1000.0 nM
[6] = molecular target: Cyclin-dependent kinase-like 1 (Homo sapiens) (UniProt Q00532); conditions: Compound concentration 1000.0 nM
[7] = molecular target: Cyclin-dependent kinase-like 5 (Homo sapiens) (UniProt O76039); conditions: Compound concentration 1000.0 nM
[8] = molecular target: Macrophage colony-stimulating factor 1 receptor (Homo sapiens) (UniProt P07333); conditions: Compound concentration 1000.0 nM
[9] = tested on: Epidermal growth factor receptor (Homo sapiens), P00533 [UNDEFINED MUTATION]; conditions: Compound concentration 1000.0 nM
[10] = tested on: Epidermal growth factor receptor (Homo sapiens), P00533 [G719S]; conditions: Compound concentration 1000.0 nM
[11] = tested on: Epidermal growth factor receptor (Homo sapiens), P00533 [L858R]; conditions: Compound concentration 1000.0 nM
[12] = molecular target: Serine/threonine-protein kinase/endoribonuclease IRE1 (Homo sapiens) (UniProt O75460); conditions: Compound concentration 1000.0 nM
[13] = molecular target: Receptor-type tyrosine-protein kinase FLT3 (Homo sapiens) (UniProt P36888); conditions: Compound concentration 1000.0 nM
[14] = molecular target: Glycogen synthase kinase-3 alpha (Homo sapiens) (UniProt P49840); conditions: Compound concentration 1000.0 nM
[15] = molecular target: Homeodomain-interacting protein kinase 1 (Homo sapiens) (UniProt Q86Z02); conditions: Compound concentration 1000.0 nM
[16] = tested on: Mast/stem cell growth factor receptor Kit (Homo sapiens), P10721 [A829P]; conditions: Compound concentration 1000.0 nM
[17] = tested on: Mast/stem cell growth factor receptor Kit (Homo sapiens), P10721 [D816H]; conditions: Compound concentration 1000.0 nM
[18] = tested on: Mast/stem cell growth factor receptor Kit (Homo sapiens), P10721 [L576P]; conditions: Compound concentration 1000.0 nM
[19] = molecular target: MAP/microtubule affinity-regulating kinase 3 (Homo sapiens) (UniProt P27448); conditions: Compound concentration 1000.0 nM
[20] = molecular target: Dual specificity mitogen-activated protein kinase kinase 3 (Homo sapiens) (UniProt P46734); conditions: Compound concentration 1000.0 nM
[21] = molecular target: Hepatocyte growth factor receptor (Homo sapiens) (UniProt P08581); conditions: Compound concentration 1000.0 nM
[22] = molecular target: Mitogen-activated protein kinase kinase kinase 10 (Homo sapiens) (UniProt Q02779); conditions: Compound concentration 1000.0 nM
[23] = molecular target: Muscle, skeletal receptor tyrosine-protein kinase (Homo sapiens) (UniProt O15146); conditions: Compound concentration 1000.0 nM
[24] = molecular target: Myosin light chain kinase, smooth muscle (Homo sapiens) (UniProt Q15746); conditions: Compound concentration 1000.0 nM
[25] = molecular target: Myosin-IIIa (Homo sapiens) (UniProt Q8NEV4); conditions: Compound concentration 1000.0 nM
[26] = molecular target: Mitogen-activated protein kinase kinase kinase 14 (Homo sapiens) (UniProt Q99558); conditions: Compound concentration 1000.0 nM
[27] = molecular target: Mitogen-activated protein kinase 11 (Homo sapiens) (UniProt Q15759); conditions: Compound concentration 1000.0 nM
[28] = molecular target: Platelet-derived growth factor receptor alpha (Homo sapiens) (UniProt P16234); conditions: Compound concentration 1000.0 nM
[29] = tested on: Phosphatidylinositol 4,5-bisphosphate 3-kinase catalytic subunit alpha isoform (Homo sapiens), P42336 [E542K]; conditions: Compound concentration 1000.0 nM
[30] = molecular target: Phosphatidylinositol 5-phosphate 4-kinase type-2 gamma (Homo sapiens) (UniProt Q8TBX8); conditions: Compound concentration 1000.0 nM
[31] = molecular target: Protein kinase C theta type (Homo sapiens) (UniProt Q04759); conditions: Compound concentration 1000.0 nM
[32] = molecular target: Ribosomal protein S6 kinase alpha-3 (Homo sapiens) (UniProt P51812); conditions: Compound concentration 1000.0 nM
[33] = molecular target: Serine/threonine-protein kinase SBK1 (Homo sapiens) (UniProt Q52WX2); conditions: Compound concentration 1000.0 nM
[34] = molecular target: SNF-related serine/threonine-protein kinase (Homo sapiens) (UniProt Q9NRH2); conditions: Compound concentration 1000.0 nM
[35] = molecular target: SRSF protein kinase 2 (Homo sapiens) (UniProt P78362); conditions: Compound concentration 1000.0 nM
[36] = molecular target: Serine/threonine-protein kinase 35 (Homo sapiens) (UniProt Q8TDR2); conditions: Compound concentration 1000.0 nM
[37] = molecular target: STE20/SPS1-related proline-alanine-rich protein kinase (Homo sapiens) (UniProt Q9UEW8); conditions: Compound concentration 1000.0 nM
[38] = molecular target: Mitogen-activated protein kinase kinase kinase 7 (Homo sapiens) (UniProt O43318); conditions: Compound concentration 1000.0 nM
[39] = molecular target: Testis-specific serine/threonine-protein kinase 3 (Homo sapiens) (UniProt Q96PN8); conditions: Compound concentration 1000.0 nM
[40] = molecular target: Serine/threonine-protein kinase ULK1 (Homo sapiens) (UniProt O75385); conditions: Compound concentration 1000.0 nM
[41] = molecular target: 5-hydroxytryptamine receptor 1D (Homo sapiens) (UniProt P28221); conditions: Compound concentration 10.0 uM
[42] = molecular target: 5-hydroxytryptamine receptor 5A (Homo sapiens) (UniProt P47898); conditions: Compound concentration 10.0 uM
[43] = molecular target: D(3) dopamine receptor (Homo sapiens) (UniProt P35462); conditions: Compound concentration 10.0 uM
[44] = molecular target: Mu-type opioid receptor (Homo sapiens) (UniProt P35372); conditions: Compound concentration 10.0 uM
[45] = molecular target: Kappa-type opioid receptor (Homo sapiens) (UniProt P41145); conditions: Compound concentration 10.0 uM

Myosin light chain kinase, smooth muscle (Homo sapiens), sequence (Q15746 whole entry): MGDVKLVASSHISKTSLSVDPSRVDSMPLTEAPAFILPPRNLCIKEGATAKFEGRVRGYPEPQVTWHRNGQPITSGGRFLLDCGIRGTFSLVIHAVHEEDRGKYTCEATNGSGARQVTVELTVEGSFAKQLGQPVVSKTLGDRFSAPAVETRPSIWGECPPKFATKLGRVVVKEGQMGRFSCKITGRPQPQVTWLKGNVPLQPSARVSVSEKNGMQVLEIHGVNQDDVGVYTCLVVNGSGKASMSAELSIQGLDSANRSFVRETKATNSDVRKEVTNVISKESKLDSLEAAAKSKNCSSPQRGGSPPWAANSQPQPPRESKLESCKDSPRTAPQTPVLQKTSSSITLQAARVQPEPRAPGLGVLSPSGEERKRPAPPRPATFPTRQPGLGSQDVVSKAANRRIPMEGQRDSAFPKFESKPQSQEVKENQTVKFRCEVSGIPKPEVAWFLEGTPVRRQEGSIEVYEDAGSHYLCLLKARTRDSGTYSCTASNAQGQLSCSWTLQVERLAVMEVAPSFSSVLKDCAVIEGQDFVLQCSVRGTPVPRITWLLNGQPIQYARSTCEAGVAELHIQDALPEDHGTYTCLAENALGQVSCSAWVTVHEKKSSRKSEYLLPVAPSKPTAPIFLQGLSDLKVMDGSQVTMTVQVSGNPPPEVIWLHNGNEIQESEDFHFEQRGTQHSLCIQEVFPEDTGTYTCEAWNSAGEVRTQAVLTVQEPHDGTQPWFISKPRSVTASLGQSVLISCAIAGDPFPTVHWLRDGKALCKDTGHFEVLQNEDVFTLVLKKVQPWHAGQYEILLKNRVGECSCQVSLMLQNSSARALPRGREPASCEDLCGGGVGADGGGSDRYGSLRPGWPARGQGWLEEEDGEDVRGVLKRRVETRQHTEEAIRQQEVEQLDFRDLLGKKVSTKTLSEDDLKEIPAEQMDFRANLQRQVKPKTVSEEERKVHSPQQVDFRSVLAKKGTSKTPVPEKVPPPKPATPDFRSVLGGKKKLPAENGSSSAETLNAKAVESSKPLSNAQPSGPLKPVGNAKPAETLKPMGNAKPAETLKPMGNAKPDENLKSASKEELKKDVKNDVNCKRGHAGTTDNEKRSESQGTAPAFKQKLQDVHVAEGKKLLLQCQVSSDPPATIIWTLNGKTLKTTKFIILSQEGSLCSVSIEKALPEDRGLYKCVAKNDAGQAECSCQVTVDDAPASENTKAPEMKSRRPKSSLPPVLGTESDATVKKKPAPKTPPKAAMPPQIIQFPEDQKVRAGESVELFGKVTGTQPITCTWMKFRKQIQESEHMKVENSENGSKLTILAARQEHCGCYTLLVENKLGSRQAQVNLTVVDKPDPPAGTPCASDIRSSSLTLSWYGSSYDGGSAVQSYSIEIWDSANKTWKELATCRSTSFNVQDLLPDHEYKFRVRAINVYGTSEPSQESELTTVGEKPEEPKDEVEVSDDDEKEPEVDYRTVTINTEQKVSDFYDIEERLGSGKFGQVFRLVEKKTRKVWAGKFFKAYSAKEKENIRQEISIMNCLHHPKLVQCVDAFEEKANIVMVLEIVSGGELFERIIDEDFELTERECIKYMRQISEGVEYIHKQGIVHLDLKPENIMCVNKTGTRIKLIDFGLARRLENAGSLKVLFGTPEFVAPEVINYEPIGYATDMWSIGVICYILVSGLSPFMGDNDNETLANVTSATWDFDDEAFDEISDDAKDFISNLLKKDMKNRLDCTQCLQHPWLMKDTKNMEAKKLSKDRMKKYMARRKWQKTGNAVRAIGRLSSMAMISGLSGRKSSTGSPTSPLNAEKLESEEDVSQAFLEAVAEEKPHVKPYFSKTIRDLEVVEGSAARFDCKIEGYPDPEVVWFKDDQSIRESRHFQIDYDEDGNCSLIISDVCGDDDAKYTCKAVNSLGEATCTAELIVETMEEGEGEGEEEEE
Glycogen synthase kinase-3 alpha (Homo sapiens), sequence (P49840 2-483 limits assumed): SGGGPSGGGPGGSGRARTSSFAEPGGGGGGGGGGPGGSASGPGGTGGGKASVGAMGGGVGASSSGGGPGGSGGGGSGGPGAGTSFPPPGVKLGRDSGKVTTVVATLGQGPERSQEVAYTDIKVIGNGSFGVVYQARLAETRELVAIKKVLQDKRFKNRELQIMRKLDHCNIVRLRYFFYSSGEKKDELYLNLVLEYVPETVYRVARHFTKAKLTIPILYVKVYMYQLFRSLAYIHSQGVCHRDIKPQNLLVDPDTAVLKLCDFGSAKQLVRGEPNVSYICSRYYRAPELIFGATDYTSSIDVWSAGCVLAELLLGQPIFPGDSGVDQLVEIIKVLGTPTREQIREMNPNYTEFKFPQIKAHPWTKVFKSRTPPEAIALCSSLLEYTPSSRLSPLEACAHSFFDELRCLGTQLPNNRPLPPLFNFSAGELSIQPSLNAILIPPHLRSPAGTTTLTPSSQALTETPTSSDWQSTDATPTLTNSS
Cyclin-dependent kinase-like 1 (Homo sapiens), sequence (Q00532 whole entry): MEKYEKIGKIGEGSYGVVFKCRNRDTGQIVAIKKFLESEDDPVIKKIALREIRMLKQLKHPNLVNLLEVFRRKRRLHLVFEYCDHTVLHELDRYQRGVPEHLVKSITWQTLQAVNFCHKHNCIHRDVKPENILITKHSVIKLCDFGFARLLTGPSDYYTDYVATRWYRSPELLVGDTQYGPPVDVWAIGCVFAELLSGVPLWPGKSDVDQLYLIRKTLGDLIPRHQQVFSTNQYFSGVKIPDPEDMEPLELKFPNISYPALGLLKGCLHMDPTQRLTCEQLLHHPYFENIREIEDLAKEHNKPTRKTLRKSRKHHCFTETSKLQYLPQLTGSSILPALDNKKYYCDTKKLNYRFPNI
Macrophage colony-stimulating factor 1 receptor (Homo sapiens), sequence (P07333 whole entry): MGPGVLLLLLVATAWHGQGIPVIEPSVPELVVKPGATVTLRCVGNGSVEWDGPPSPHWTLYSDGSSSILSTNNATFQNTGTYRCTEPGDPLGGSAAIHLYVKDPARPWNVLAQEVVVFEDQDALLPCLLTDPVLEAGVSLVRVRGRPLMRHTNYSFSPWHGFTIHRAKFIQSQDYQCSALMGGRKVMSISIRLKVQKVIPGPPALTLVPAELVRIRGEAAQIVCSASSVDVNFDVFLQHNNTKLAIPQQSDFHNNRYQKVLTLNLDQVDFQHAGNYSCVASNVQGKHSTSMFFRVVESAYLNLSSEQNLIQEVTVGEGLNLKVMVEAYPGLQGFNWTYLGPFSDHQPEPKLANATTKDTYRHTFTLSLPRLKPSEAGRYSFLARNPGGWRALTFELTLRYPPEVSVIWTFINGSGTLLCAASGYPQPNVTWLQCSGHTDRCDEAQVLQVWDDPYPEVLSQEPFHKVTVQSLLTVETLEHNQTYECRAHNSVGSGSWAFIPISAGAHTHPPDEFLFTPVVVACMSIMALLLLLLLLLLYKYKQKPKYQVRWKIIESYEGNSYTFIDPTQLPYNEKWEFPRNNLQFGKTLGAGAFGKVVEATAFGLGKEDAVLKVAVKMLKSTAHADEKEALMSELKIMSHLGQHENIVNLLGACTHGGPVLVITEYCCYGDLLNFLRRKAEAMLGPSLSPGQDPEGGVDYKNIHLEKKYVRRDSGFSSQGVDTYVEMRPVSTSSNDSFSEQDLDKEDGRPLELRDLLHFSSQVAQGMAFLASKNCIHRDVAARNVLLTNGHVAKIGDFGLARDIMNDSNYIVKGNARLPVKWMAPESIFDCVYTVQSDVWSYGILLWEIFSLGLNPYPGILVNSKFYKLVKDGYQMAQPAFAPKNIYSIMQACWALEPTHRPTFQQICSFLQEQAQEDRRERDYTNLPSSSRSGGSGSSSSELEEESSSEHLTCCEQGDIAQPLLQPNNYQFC
SNF-related serine/threonine-protein kinase (Homo sapiens), sequence (Q9NRH2 whole entry): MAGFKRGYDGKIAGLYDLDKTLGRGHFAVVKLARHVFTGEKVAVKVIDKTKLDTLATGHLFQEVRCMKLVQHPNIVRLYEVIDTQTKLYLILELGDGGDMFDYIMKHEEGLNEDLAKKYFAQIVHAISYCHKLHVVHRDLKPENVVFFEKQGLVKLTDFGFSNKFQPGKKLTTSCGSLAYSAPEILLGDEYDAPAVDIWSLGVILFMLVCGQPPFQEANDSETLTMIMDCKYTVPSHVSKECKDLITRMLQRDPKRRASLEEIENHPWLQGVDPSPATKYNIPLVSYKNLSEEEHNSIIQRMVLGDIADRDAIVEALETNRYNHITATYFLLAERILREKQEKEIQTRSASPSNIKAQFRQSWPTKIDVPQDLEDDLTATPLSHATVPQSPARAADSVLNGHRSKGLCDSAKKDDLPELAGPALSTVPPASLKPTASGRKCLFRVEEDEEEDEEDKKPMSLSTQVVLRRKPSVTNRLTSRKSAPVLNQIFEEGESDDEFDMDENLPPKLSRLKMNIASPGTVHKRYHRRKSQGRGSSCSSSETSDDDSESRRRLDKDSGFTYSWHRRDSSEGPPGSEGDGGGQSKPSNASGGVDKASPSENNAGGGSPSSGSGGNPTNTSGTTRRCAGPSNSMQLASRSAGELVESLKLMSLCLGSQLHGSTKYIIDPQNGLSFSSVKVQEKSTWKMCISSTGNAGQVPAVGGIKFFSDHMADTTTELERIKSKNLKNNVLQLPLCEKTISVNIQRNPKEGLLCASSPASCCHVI
Cyclin-dependent kinase 19 (Homo sapiens), sequence (Q9BWU1 whole entry): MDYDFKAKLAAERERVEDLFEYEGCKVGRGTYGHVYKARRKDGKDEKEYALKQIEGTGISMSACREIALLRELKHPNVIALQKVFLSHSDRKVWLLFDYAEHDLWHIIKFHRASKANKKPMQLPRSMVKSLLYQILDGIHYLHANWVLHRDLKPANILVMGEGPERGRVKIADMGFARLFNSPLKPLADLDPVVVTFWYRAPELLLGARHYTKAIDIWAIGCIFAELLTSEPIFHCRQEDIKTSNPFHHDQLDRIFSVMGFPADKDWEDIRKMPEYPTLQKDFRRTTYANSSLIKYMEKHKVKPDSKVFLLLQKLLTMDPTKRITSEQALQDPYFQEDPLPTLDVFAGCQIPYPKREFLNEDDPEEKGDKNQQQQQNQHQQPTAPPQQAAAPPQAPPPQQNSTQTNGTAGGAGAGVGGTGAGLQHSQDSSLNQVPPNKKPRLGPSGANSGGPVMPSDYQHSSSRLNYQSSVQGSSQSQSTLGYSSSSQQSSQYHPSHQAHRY

O=C(NC[C@@H]1[C@H]2CN(C(=O)OCc3cc(C(F)(F)F)cc(C(F)(F)F)c3)C[C@@H]12)c1ccc2[nH]nnc2c1 [BI 2545]
inactive: residual activity [1] 98% | residual activity [2] 79% | residual activity [3] 100% | residual activity [4] 89% | residual activity [5] 100% | residual activity [6] 84% | residual activity [7] 100% | residual activity [8] 99% | residual activity [9] 72% | residual activity [10] 100% | residual activity [11] 100% | residual activity [12] 77% | residual activity [13] 93% | residual activity [14] 99% | residual activity [15] 85% | residual activity [16] 100% | residual activity [17] 100% | residual activity [18] 92% | residual activity [19] 100% | residual activity [20] 93% | residual activity [21] 100% | residual activity [22] 83% | residual activity [23] 77% | residual activity [24] 88% | residual activity [25] 98% | residual activity [26] 77% | residual activity [27] 100% | residual activity [28] 97% | residual activity [29] 75% | residual activity [30] 100% | residual activity [31] 100% | residual activity [32] 89% | residual activity [33] 97% | residual activity [34] 77% | residual activity [35] 100% | residual activity [36] 100% | residual activity [37] 80% | residual activity [38] 94% | residual activity [39] 100% | residual activity [40] 92% | inhibition [41] 43.2% | inhibition [42] 33.2% | inhibition [43] 6.61% | inhibition [44] 43% | inhibition [45] 27.8%

Cc1nccc(COC(=O)N2C[C@@H]3[C@@H](CNC(=O)c4ccc5[nH]nnc5c4)[C@@H]3C2)n1 [BI 3017]
inactive: residual activity [1] 95% | residual activity [2] 87% | residual activity [3] 92% | residual activity [4] 97% | residual activity [5] 100% | residual activity [6] 81% | residual activity [7] 87% | residual activity [8] 88% | residual activity [9] 100% | residual activity [10] 100% | residual activity [11] 78% | residual activity [12] 90% | residual activity [13] 89% | residual activity [14] 82% | residual activity [15] 82% | residual activity [16] 94% | residual activity [17] 99% | residual activity [18] 89% | residual activity [19] 95% | residual activity [20] 84% | residual activity [21] 94% | residual activity [22] 85% | residual activity [23] 100% | residual activity [24] 100% | residual activity [25] 99% | residual activity [26] 66% | residual activity [27] 94% | residual activity [28] 80% | residual activity [29] 86% | residual activity [30] 100% | residual activity [31] 91% | residual activity [32] 86% | residual activity [33] 93% | residual activity [34] 98% | residual activity [35] 77% | residual activity [36] 83% | residual activity [37] 79% | residual activity [38] 75% | residual activity [39] 100% | residual activity [40] 93% | inhibition [41] 23% | inhibition [42] 13.2% | inhibition [43] 1.07% | inhibition [44] 12.1% | inhibition [45] 9.47%
